Patent US11667649B2, “Heteroaromatic macrocyclic ether chemotherapeutic agents” (Nuvalent, Inc., priority 2020, dated 2023)

Test system: TPM3-NTRK1-wt IC50 / primary target (e.g. CD74-ROS1-wt) IC50, Ba/F3 cells
Experiment: Cell assay TRKA selectivity (TRKA potency divided by primary target potency)
Type: cell-based
Details: for TPM3-NTRK1-wt/CD74-ROS1-G2032R: TRKA selectivity ratio: TPM3-NTRK1-wt IC50 / CD74-ROS1-G2032R IC50, Ba/F3 cells; for TPM3-NTRK1-wt/CD74-ROS1-wt: TRKA selectivity ratio: TPM3-NTRK1-wt IC50 / CD74-ROS1-wt IC50, Ba/F3 cells; for TPM3-NTRK1-wt/EML4-ALK-L1196M-G1202R: TRKA selectivity ratio: TPM3-NTRK1-wt IC50 / EML4-ALK-L1196M-G1202R IC50, Ba/F3 cells; for TPM3-NTRK1-wt/EML4-ALK-wt: TRKA selectivity ratio: TPM3-NTRK1-wt IC50 / EML4-ALK-wt IC50, Ba/F3 cells
Method in brief: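 Ratio of TRKA to primary-target cellular IC50 (e.g. TPM3-NTRK1-wt/CD74-ROS1-wt), grouped into bins A >30, B >10, C ≥1, D <1. Each IC50 came from engineered Ba/F3 fusion lines grown without IL-3, dosed for 72 h and read as CellTiter-Glo luminescence, with a four-parameter logistic fit.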

SMILES	TPM3-NTRK1-wt/CD74-ROS1-G2032R	TPM3-NTRK1-wt/CD74-ROS1-wt	TPM3-NTRK1-wt/EML4-ALK-L1196M-G1202R	TPM3-NTRK1-wt/EML4-ALK-wt
C[C@H]1Oc2cc(cnc2N)-c2c(CC(F)F)nn(C)c2Cc2cn(C)nc2-c2ccc(F)cc21 [Example 172, (19R)-3-(2,2-difluoroethyl)-16-fluoro-5,10,19-trimethyl-20-oxa-4,5,10,11,23-pentaazapentacyclo[19.3.1.0^2,^6.0^8,^12.0^13,^18]pentacosa-1(24),2(6),3,8,11,13,15,17,21(25),22-decaen-22-amine]	A (bin A for very high selectivity, ratio>30-fold)	A (bin A for very high selectivity, ratio>30-fold)	A (bin A for very high selectivity, ratio>30-fold)	A (bin A for very high selectivity, ratio>30-fold)
Cc1cn2c(n1)-c1ccc(F)cc1[C@@H](C)Oc1cc(cnc1N)-c1c(c(C)nn1CC1CC1)C2 [Example 56, (19R)-3-(cyclopropylmethyl)-16-fluoro-5,10,19-trimethyl-20-oxa-3,4,8,11,23-pentaazapentacyclo[19.3.1.0^2,^6.0^8,^12.0^13,^18]pentacosa-1(24),2(6),4,9,11,13,15,17,21(25),22-decaen-22-amine]	D (bin D for low selectivity, ratio<1)	D (bin D for low selectivity, ratio<1)	D (bin D for low selectivity, ratio<1)	D (bin D for low selectivity, ratio<1)
C[C@H]1Oc2cc(cnc2N)-c2c(C#N)nn(C)c2Cc2cc(C(F)(F)F)nn2-c2ccc(F)cc21 [Example 104, (19R)-22-amino-16-fluoro-5,19-dimethyl-10-(trifluoromethyl)-20-oxa-4,5,11,12,23-pentaazapentacyclo[19.3.1.0^2,^6.0^8,^12.0^13,^18]pentacosa-1(24),2(6),3,8,10,13,15,17,21(25),22-decaene-3-carbonitrile]	A (bin A for very high selectivity, ratio>30-fold)	A (bin A for very high selectivity, ratio>30-fold)	C (bin C for moderate selectivity, ratio≥1)	A (bin A for very high selectivity, ratio>30-fold)
CC(C)n1nc2c(c1C#N)-c1cnc(N)c(c1)O[C@H](C)c1cc(F)ccc1-n1nccc1C2 [Example 118, (19R)-22-amino-16-fluoro-19-methyl-4-(propan-2-yl)-20-oxa-4,5,11,12,23-pentaazapentacyclo[19.3.1.0^2,^6.0^8,^12.0^13,^18]pentacosa-1(24),2,5,8,10,13,15,17,21(25),22-decaene-3-carbonitrile]	D (bin D for low selectivity, ratio<1)	A (bin A for very high selectivity, ratio>30-fold)	D (bin D for low selectivity, ratio<1)	A (bin A for very high selectivity, ratio>30-fold)
C[C@H]1Oc2cc(cnc2N)-c2c(C#N)ncn2Cc2cnccc2-c2ccc(F)cc21 [Example 10, (20R)-23-amino-17-fluoro-20-methyl-21-oxa-4,6,10,24-tetraazapentacyclo[20.3.1.0^2,^6.0^8,^13.0^14,^19]hexacosa-1(25),2,4,8(13),9,11,14,16,18,22(26),23-undecaene-3-carbonitrile]	A (bin A for very high selectivity, ratio>30-fold)	D (bin D for low selectivity, ratio<1)	C (bin C for moderate selectivity, ratio≥1)	A (bin A for very high selectivity, ratio>30-fold)
CCn1ncc2c1-c1cnc(N)c(c1)O[C@H](C)c1cc(F)ccc1-c1nn(C(C)(C)C)cc1C2 [Example 150, (19R)-10-tert-butyl-3-ethyl-16-fluoro-19-methyl-20-oxa-3,4,10,11,23-pentaazapentacyclo[19.3.1.0^2,^6.0^8,^12.0^13,^18]pentacosa-1(24),2(6),4,8,11,13,15,17,21(25),22-decaen-22-amine]	A (bin A for very high selectivity, ratio>30-fold)	A (bin A for very high selectivity, ratio>30-fold)	C (bin C for moderate selectivity, ratio≥1)	B (bin B for high selectivity, ratio>10-fold)
CCn1nnc2c1-c1cnc(N)c(c1)O[C@H](C)c1cc(F)ccc1-c1nc(C)sc1C2 [Example 78, (19R)-3-ethyl-16-fluoro-10,19-dimethyl-20-oxa-9-thia-3,4,5,11,23-pentaazapentacyclo[19.3.1.0^2,^6.0^8,^12.0^13,^18]pentacosa-1(24),2(6),4,8(12),10,13,15,17,21(25),22-decaen-22-amine]	A (bin A for very high selectivity, ratio>30-fold)	A (bin A for very high selectivity, ratio>30-fold)	B (bin B for high selectivity, ratio>10-fold)	A (bin A for very high selectivity, ratio>30-fold)
C[C@H]1Oc2cc(cnc2N)-c2c(nn(C)c2CC2CC2)Cc2ccnn2-c2ccc(F)cc21 [Example 177, (19R)-3-(cyclopropylmethyl)-16-fluoro-4,19-dimethyl-20-oxa-4,5,11,12,23-pentaazapentacyclo[19.3.1.0^2,^6.0^8,^12.0^13,^18]pentacosa-1(24),2,5,8,10,13,15,17,21(25),22-decaen-22-amine]	A (bin A for very high selectivity, ratio>30-fold)	A (bin A for very high selectivity, ratio>30-fold)	B (bin B for high selectivity, ratio>10-fold)	A (bin A for very high selectivity, ratio>30-fold)
C[C@H]1Oc2cc(cnc2N)-c2c(C#N)nn(C)c2Cc2cc(C(F)F)nn2-c2ccc(F)cc21 [Example 132, (19R)-22-amino-10-(difluoromethyl)-16-fluoro-5,19-dimethyl-20-oxa-4,5,11,12,23-pentaazapentacyclo[19.3.1.0^2,^6.0^8,^12.0^13,^18]pentacosa-1(24),2(6),3,8,10,13,15,17,21(25),22-decaene-3-carbonitrile]	A (bin A for very high selectivity, ratio>30-fold)	A (bin A for very high selectivity, ratio>30-fold)	C (bin C for moderate selectivity, ratio≥1)	A (bin A for very high selectivity, ratio>30-fold)
C[C@H]1Oc2cc(cnc2N)-c2c(c(Cl)nn2CC2CC2)Cc2cn(C)nc2-c2ccc(F)cc21 [Example 133, (19R)-5-chloro-3-(cyclopropylmethyl)-16-fluoro-10,19-dimethyl-20-oxa-3,4,10,11,23-pentaazapentacyclo[19.3.1.0^2,^6.0^8,^12.0^13,^18]pentacosa-1(24),2(6),4,8,11,13,15,17,21(25),22-decaen-22-amine]	A (bin A for very high selectivity, ratio>30-fold)	A (bin A for very high selectivity, ratio>30-fold)	A (bin A for very high selectivity, ratio>30-fold)	A (bin A for very high selectivity, ratio>30-fold)
CCc1nn(C)c2c1-c1cnc(N)c(c1)O[C@H](C)c1cc(F)ccc1-c1nn(C)cc1C2 [Example 171, (19R)-3-ethyl-16-fluoro-5,10,19-trimethyl-20-oxa-4,5,10,11,23-pentaazapentacyclo[19.3.1.0^2,^6.0^8,^12.0^13,^18]pentacosa-1(24),2(6),3,8,11,13,15,17,21(25),22-decaen-22-amine]	A (bin A for very high selectivity, ratio>30-fold)	A (bin A for very high selectivity, ratio>30-fold)	B (bin B for high selectivity, ratio>10-fold)	A (bin A for very high selectivity, ratio>30-fold)
CCc1noc2c1-c1cnc(N)c(c1)OCc1cc(F)ccc1-c1nn(C)cc1C2 [Example 30, 3-ethyl-16-fluoro-10-methyl-5,20-dioxa-4,10,11,23-tetraazapentacyclo[19.3.1.0^2,^6.0^8,^12.0^13,^18]pentacosa-1(24),2(6),3,8,11,13,15,17,21(25),22-decaen-22-amine]	A (bin A for very high selectivity, ratio>30-fold)	A (bin A for very high selectivity, ratio>30-fold)	C (bin C for moderate selectivity, ratio≥1)	A (bin A for very high selectivity, ratio>30-fold)
CCc1nn(CC)c2c1Cc1cn(C)nc1-c1ccc(F)cc1[C@@H](C)Oc1cc-2cnc1N [Example 158, (19R)-3,5-diethyl-16-fluoro-10,19-dimethyl-20-oxa-3,4,10,11,23-pentaazapentacyclo[19.3.1.0^2,^6.0^8,^12.0^13,^18]pentacosa-1(24),2(6),4,8,11,13,15,17,21(25),22-decaen-22-amine]	A (bin A for very high selectivity, ratio>30-fold)	A (bin A for very high selectivity, ratio>30-fold)	C (bin C for moderate selectivity, ratio≥1)	A (bin A for very high selectivity, ratio>30-fold)
CCn1nc(C#N)c2c1-c1cnc(N)c(c1)O[C@H](C)c1cc(F)ccc1-c1nn(C)cc1C2 [Example 156, (19R)-22-amino-3-ethyl-16-fluoro-10,19-dimethyl-20-oxa-3,4,10,11,23-pentaazapentacyclo[19.3.1.0^2,^6.0^8,^12.0^13,^18]pentacosa-1(24),2(6),4,8,11,13,15,17,21(25),22-decaene-5-carbonitrile]	–	–	C (bin C for moderate selectivity, ratio≥1)	–
